Results reported in paper PMC11067372, “Evaluation of the antiplasmodial efficacy of synthetic 2,5-diphenyloxazole analogs of compounds naturally derived from Oxytropis lanata” (International Journal for Parasitology: Drugs and Drug …, 2024).
Like-named read-outs stand apart in the source and are kept apart here.

Columns and labels:
P. falciparum 3D7 [1] = assay: In vitro inhibition of P. falciparum 3D7 (SYBR Green I-based fluorescence assay); assay type: cell-based, Plasmodium falciparum; details: Plasmodium falciparum, 3D7, 72 h, read-out: IC50 P. falciparum 3D7
Experimental: (§1) The cultures were maintained in an incubator under specific conditions: 37 °C under 5% CO2 and 5% O2.
(§2) The D-sorbitol method (CAS: 50-70-4, Wako, Osaka, Japan) was employed to synchronize parasites, resulting in the attainment of ≥90% ring-stage parasites. These synchronized parasites were then utilized for the experiments within a 2-h window. The assay was performed as follows. First, 50 μL of synchronized parasites with 0.5% parasitemia and 2% hematocrit were added to individual wells of a 96-well plate. Then, 50 μL of the test compounds was introduced to each well. […] Wells containing only test compounds and erythrocytes were included for background correction. […] After the designated incubation time, 100 μL of lysis buffer containing 0.02% (v/v) SYBR Green I was added to each well, the contents of the well were mixed by pipetting, and the plate was incubated in the dark at room temperature for 2 h. […] This assay was repeated four times at each concentration, and the resulting inhibitory values represent the average from three independent trials.
(§3) The IC50 or CC50 values were determined from three independent experiments by plotting the logarithmic concentration of the compound against the percent parasite inhibition or cell growth inhibition, respectively. Nonlinear regression analysis was conducted using GraphPad Prism 10 (GraphPad Software, Inc., La Jolla, CA, USA). Comparisons between groups were evaluated using either one-way or two-way ANOVA followed by Tukey's or Fisher's multiple comparisons tests. […] The meaning of each symbol is specified in the corresponding figure legend alongside the name of the employed test.

P. falciparum 3D7 [2] = assay: IC50 speed assay (24, 48, 72 h); assay type: cell-based, Plasmodium falciparum; details: for Speed of action (IC50 speed assay): IC50 at 24, 48, 72 h compared; for IC50: Plasmodium falciparum
Experimental: as §2

P. falciparum K1 = assay: In vitro inhibition of P. falciparum K1 (SYBR Green I-based fluorescence assay); assay type: cell-based; details: Plasmodium falciparum, read-out: IC50 P. falciparum K1
Experimental: as §1, §2, §3

P. yoelii 17XNL = assay type: in vivo; details: P. yoelii 17XNL-infected mice; 20 mg/kg/day
Experimental: Male C57BL/6 mice, aged eight weeks, were obtained from Japan CLEA (Tokyo, Japan) and housed with six per cage in each group. These mice were kept under conditions of 24 °C, 50% relative humidity, and a light-dark cycle of 8 a.m. to 8 p.m. Access to drinking water and food (CLEA Rodent Diet CE-2; Japan CLEA, Tokyo, Japan) was unrestricted. Prior to experimentation, P. yoelii 17XNL was recovered from cryopreserved erythrocyte stocks via passage in mice. […]. Parasitemia levels were evaluated […] by collecting 2 μL of blood from the mouse tail for thin blood smear preparation. Treatment was initiated upon reaching a parasitemia level of 1%. […]. Parasitemia in infected mice was observed daily by preparing Giemsa-stained thin blood smears (up to 30 dpi). Hematocrit levels were measured every other day using a Celltac-α MEK-6550 (Nihon Kohden, Tokyo, Japan), with 10 μL of blood collected from the mouse tail for each assessment. The animals were handled and treated in accordance with the Guide for the Care and Use of Laboratory Animals by the Ministry of Education, Culture, Sports, Science, and Technology, Japan. Ethical permission for the animal experiment protocols was secured under permit numbers 21–35 and 23–90 from the ethical committee of Obihiro University of Agriculture and Veterinary Medicine.
The median point within this range was selected to maintain a balance between efficacy and safety. Furthermore, a modified Peter's suppression test was utilized to assess the efficacy of antimalarial drugs ([Ager, 1984]; [Peters et al., 1975]). The treatment and observation period were initially set for 4 days. […] […]. […] These findings highlight the effect of the 20 mg/kg/day dosage of Compounds 31 and 32 in reducing parasitemia without causing side effects.

P. falciparum 3D7 [3] = assay: Stage-specific microscopy examination (ring, trophozoite, schizont); assay type: cell-based, Plasmodium falciparum; details: ring, trophozoite, schizont stages, artemisinin and chloroquine at all concentrations, Compounds 31 and 32 at 100 times IC50
Experimental: (§4) To ensure uniformity, the parasites underwent a rigorous synchronization process using a two-step sorbitol treatment procedure. This synchronized parasite population was harnessed within a 2-h window for the ring stage, 8–10 h for the trophozoite stage, and 24–26 h for the schizont stage. Subsequent to sorbitol treatment, early trophozoites could be obtained within 6–8 h after the initial sorbitol treatment (within 20 h of development), while early schizonts could be obtained after an additional 16 h of incubation (within 36 h of development). Beyond 36 h, the schizonts mature, causing the rupture of red blood cells (RBCs) and the consequent release of merozoites, which promptly infect new RBCs.
The negative control group consisted of cultures treated solely with complete medium and was designated the no treatment (NT) group. This analysis was repeated three times at each concentration. Following a 24-h incubation period, the culture in a 96-well plate was centrifuged at 1300 g for 5 min to settle down the iRBC; then, the supernatants were removed, and the iRBCs were washed with fresh media at the same volume as the initial culture. The centrifugation and washing were repeated 3 times, allowing the compound to be diluted by approximately 1000 times. Subsequently, thin blood smears from each treatment group were prepared using 1 μL of settled iRBCs. The proportion of parasites affected by the drug, including those with both abnormal and retained morphologies, was calculated by examining 100 parasites and counting the number displaying irregular development. Subsequently, the number of abnormal parasites was divided by the total count and then multiplied by 100 to obtain a percentage. The parameters used to define normal and abnormal morphologies can be found in Table S3 and Fig. S1.

P. falciparum 3D7 [4] = assay: Stage-specific assay on ring and schizont stages (SYBR Green I, 24 h); assay type: cell-based, Plasmodium falciparum; details: eight concentrations from 100-fold IC50
Experimental: as §4
Wells containing only the test compounds and erythrocytes were included to correct for background activity. The 96-well plates were incubated for 24 h at 37 °C in an atmosphere of 5% CO2 and 5% O2. The growth of P. falciparum 3D7 was detected using a SYBR Green I-based fluorescence assay.

[5] = In vitro toxicity to human cells (cell viability assay); assay type: cell-based; details: human foreskin fibroblasts (HFFs), average ± SD, three independent experiments
Experimental: HFF cells are selected for cytotoxicity testing in this study, providing a physiologically relevant model for the evaluation of drug interactions with human cells. […] This designation makes them a suitable model for the investigation of cellular processes and their sensitivity to toxic substances, which is crucial for the early identification of potential adverse effects of drugs during the development process.
The IC50 or CC50 values were determined from three independent experiments by plotting the logarithmic concentration of the compound against the percent parasite inhibition or cell growth inhibition, respectively. Nonlinear regression analysis was conducted using GraphPad Prism 10 (GraphPad Software, Inc., La Jolla, CA, USA). Comparisons between groups were evaluated using either one-way or two-way ANOVA followed by Tukey's or Fisher's multiple comparisons tests. A p-value of <0.05 was considered to indicate statistical significance and is denoted by an asterisk or a symbol. The meaning of each symbol is specified in the corresponding figure legend alongside the name of the employed test.

IC50 (P. falciparum 3D7 [2]; P. falciparum 3D7, 24 h incubation, read-out: IC50 24 h) | IC50 (P. falciparum 3D7 [2]; P. falciparum 3D7, 48 h incubation, read-out: IC50 48 h) | IC50 (P. falciparum K1; multidrug-resistant strain K1, 72 h incubation, average ± SD, three independent experiments) | SMILES | IC50 (P. falciparum 3D7 [1]) | Speed of action (IC50 speed assay) (P. falciparum 3D7 [2]; P. falciparum 3D7) | IC50 (P. falciparum 3D7 [2]; 3D7, 24 h, read-out: IC50 24 h) | IC50 (P. falciparum 3D7 [2]; 3D7, 48 h, read-out: IC50 48 h) | IC50 (P. falciparum 3D7 [2]; 3D7, 72 h, read-out: IC50 72 h) | IC50 (P. falciparum K1; K1, 72 h) | Treatment duration required to decrease the parasitemia levels from the peak of infection (P. yoelii 17XNL) | Parasite morphology after 24 h treatment (P. falciparum 3D7 [3]) | Stage specificity (ring and schizont stages) (P. falciparum 3D7 [4]) | CC50 [5]
 |  |  | CCN(CC)CCCC(C)Nc1ccnc2cc(Cl)ccc12 (stereo not shown) [Chloroquine (diphosphate), chloroquine diphosphate, reference compound] | 26 ± 3 nM | fast-acting | 46 ± 3 nM | 22 ± 4 nM | 26 ± 4 nM | 784 ± 73 nM | 7 days | death and shrinkage of the parasite at all stages | potency against ring and schizont stages | 
37 ± 5 nM | 23 ± 2 nM | 19 ± 2 nM | C[C@@H]1CC[C@H]2[C@@H](C)C(=O)O[C@@H]3O[C@@]4(C)CC[C@@H]1[C@]32OO4 [Artemisinin, artemisinin, reference compound] |  | fast-acting |  |  |  |  |  | death and shrinkage of the parasite at all stages | potency against ring and schizont stages | 153000 ± 30800 nM
